Measured values taken from US20240059729A1, “MULTIFUNCTIONAL CYCLIC DINUCLEOTIDE AND USE THEREOF” (TYLIGAND BIOSCIENCE (SHANGHAI) LIMITED, priority 2020, published 2024).
pIC50: −log10 of the molar value. Counter-ions that a name gives are not always drawn.

Key:
CT26 cells [1] = experiment: Anti-tumor activity in bilateral transplantation tumor model of CT26 syngeneic mouse; format: in vivo, BALB/c mice; settings: Day 0 and Day 4; for Growth inhibition rate, untreated left tumor: Day 13 post-dose, 50 μg/mouse intratumorally right side; for Inhibition of tumor growth, treated right-side tumor: Day 13 post-dosing, 50 μg/mouse (2.5 mg/kg) intratumorally right side
Procedure: BALB/c mice of 6-8 weeks (purchased from Shanghai Ling Chang Biotech Co., Ltd.) were inoculated with 5×10^5 CT26 cells (supplied by Taicang Zexin Biotechnology Co., Ltd., ATCC #CRL-2638) subcutaneously on the left and right back dorsal, respectively, and the inoculation volume was 0.1 mL/side. When tumors grew to an average volume of 100 mm^3, they were randomized according to tumor size and mouse body weight and dosing was initiated. The day of the first dose was Day 0.
Two doses were administered on Day 0 and Day 4, with 50 μg of compound/mouse (i.e., 2.5 mg/kg) injected intratumorally right side, with the same volume of PBS (Hyclone, Cat #SH30258.01) as a control. The tumor on the left side was not treated. The control mice were sacrificed 13 days and the treated mice were sacrificed 21 days, after dosing. During the experiment, tumor volumes on the left and right sides and the body weights were measured 3 times per week, and the tumor volume was calculated as V=D×d×d/2 (where D represents length of tumor and d represents width of tumor).

CT26 cells [2] = experiment: Inhibition of proliferation of CT26 cells (CellTiter-Glo); format: cell-based, mouse; settings: for pIC50: 120 hours, CellTiter-Glo
Procedure: CT26 cell is a mouse colorectal cancer cell line. This assay used the CellTiter-Glo Luminescence Cell Vitality Assay kit from Promega to evaluate the inhibitory activity of the compounds on the proliferation of CT26 cells.
In thawing the CT26 cells (ATCC #CRL-2638), a cell freezing tube was quickly shaken in a water bath at 37° C. to thaw the cells within 1 min. The thawed cell suspension was taken and evenly mixed with DMEM medium (GE, Cat #SH30243.01) containing 10% FBS (GIBCO, Cat #10099-141), centrifuged for 5 min at 1000 rpm, and the supernatant was discarded. The cell pellet was resuspended in 5 mL of the complete medium (DMEM medium containing 10% FBS), placed into a cell culture flask with a bottom area of 25 cm^2, and incubated in a cell incubator at 37° C., 5% CO2 and 95% humidity. When the cell confluence reached 70%˜80%, the cells were passaged. All the cells in the culture flask were transferred to a 15 mL centrifuge tube, centrifuged for 5 min at 1000 rpm, and the supernatant was discarded. 5 mL of fresh complete medium was added to re-suspend the cell pellet, 1 mL of which was taken to place in a cell culture flask with a bottom area of 25 cm^2, supplemented with 4 mL of fresh complete medium for further incubation. When the cell confluence reached 70%-80% again, plating was conducted following the procedure of cell passage, retaining 1/5 cell suspension for further inculation and remaining 4/5 of the cell suspension in a 15 mL centrifuge tube.
The cell suspension was centrifuged to discard the old culture medium, washed once using DMEM medium (serum-free), and centrifuged to remove the supernatant. The cells were then re-suspended in DMEM medium (serum-free). Cell viability was then detected by Trypan blue exclusion test and to be used for plating when the cell viability was confirmed to be more than 95%. A cell suspension with a density of 1.1×10^4 viable cells/mL was prepared using DMEM medium (serum-free), and 90 μL of the cell suspension was added to a 96-well 96-well transparent flat-bottomed black-walled cell culture plate (Corning, Cat #3603) so that the cell density in the plate was 1000 viable cells/well. A control group containing no cells, no compound, and complete medium only (i.e., a culture medium control), and a control group containing no compound but cells (i.e., a cell control) were set. The cell plates were placed in a cell incubator overnight.
A 10 mM stock solution of the compounds in DMSO was first serially diluted at 3.16-fold with DMSO (Sigma, Cat #D2650) to the 9th concentration, and the 10th concentration was set as DMSO control (compound-free). Then, the DMSO solutions containing different concentrations of the compounds were diluted at 10-fold with PBS (Solarbio, Cat #P1020) so that the DMSO content in each compound solution of various concentrations was 10%. Finally, 10 μL of each of such solutions was added into corresponding cell culture plate to provide an initial compound concentration of 100 μM, with the dilution fold of adjacent concentrations being 3.16 and the DMSO content in the cell culture plate being 1%. The cell plate was placed in a cell incubator for further 120 hours.
After 120 hours, the CellTiter-Glo reagent (Promega, Cat #G7572) was thawed and the plates were equilibrated at room temperature for 30 min. 100 uL of CellTiter-Glo was added to each well of the plate, and the cells were lysed thoroughly by shaking on an orbital shaker for 5 min. The plates were placed at room temperature for 20 min to stabilize the luminescence signal, and the luminescence value of each well was scanned at full wavelength with a multifunctional microplate reader (Molecular Devices, Spectramax M3). […]

SMILES	Growth inhibition rate, untreated left tumor (CT26 cells [1])	Inhibition of tumor growth, treated right-side tumor (CT26 cells [1])	Inhibitory potency on in vitro growth of CT26 tumor cells (in words) (CT26 cells [2])	pIC50 (CT26 cells [2])	pIC50 (CT26 cells [2]; Mus musculus)
Nc1ncnc2c1ncn2[C@@H]1O[C@@H]2COP(=O)([S-])O[C@@H]3[C@H](O)[C@@H](COP([O-])(=S)O[C@H]2[C@H]1O)O[C@H]3n1cnc2c(N)ncnc21.[Na+].[Na+] (stereo partly shown) [ADU-S100, reference compound]	64.2%	99.1%	no significant tumor cell inhibitory potency	< 5.00	–
Nc1nc2c(ncn2[C@@H]2O[C@@H]3CO[P@@](=O)(S)OC4C(F)[C@H](n5cnc6c(N)nc(Cl)nc65)O[C@@H]4CO[P@@](=O)(S)OC3C2O)c(=O)[nH]1 (stereo partly shown) [Example 17, diammonium salt]	67.4%	99.5%	–	–	5.00 to 6.00
Nc1nc2c(ncn2[C@@H]2O[C@@H]3CO[P@@](=O)(S)OC4C(F)[C@H](n5cnc6c(N)nc(Cl)nc65)O[C@@H]4CO[P@@](=O)(S)OC2C3O)c(=O)[nH]1 (stereo partly drawn) [Example 10, (2′,3′)-cyclo-(Rp,Rp)-[2′-O-phosphorothioate-diester-guanosine]-[3′-O-phosphorothioate-diester-2-chloro-2′-deoxy-2′-fluoro-beta-adenosine] diammonium salt]	91.2%	–	particularly significant inhibitory potency	–	> 6.00
